Source: patent publication US4912102A, “Analogs of naphtho[1,2-β] [1,4] thiazepin-4(5H)-one” (Hoffmann-La Roche Inc., priority 1988, dated 1990)
Structures can show the parent of a compound that is named as a salt. Where two headings read alike, the source gives them in different places.

Key:
[1] = tested on: Guinea Pig Ileal Longitudinal Smooth Muscle; assay: Inhibition of K+-induced tonic contraction, guinea pig ileum assay (calcium channel blocking activity); type: cell-based; details: for IC50: tonic contraction, 80 mM K+ challenge, 37° C., read-out: Inhibition of K^+-Induced Contractile Responses, IC50, Tonic; for activity in the guinea pig ileum test: doses up to 10^-4 M
Procedure: Male guinea-pigs weighing from 300-400 grams were stunned and bled. The abdomen was opened and 10-15 cm of terminal ileum was carefully removed and cleaned and placed in Tyrode's Solution of the following composition: NaCl (8 g/l), KCl (0.2 g/l), MgCl2 (0.1 g/l), CaCl2 (0.2 g/l). NaH2 PO4 (0.05 g/l), NaHCO3 (1.0 g/l) and Glucose (1 g/l). The solution was maintained at 37° C. and gassed with 95% O2 and 5% CO2. Portions of the ileum were placed over a glass rod, a shallow incision was made the length of the mesenteric attachment just severing the outer-longitudinal muscle layer. The longitudinal muscle was separated from the underlying circular muscle by gentle dissection (Rang. H. P. Annals. of New York Academy of Science, vol. 144, page 756, 1964). The tissue was fixed at one end to a tissue holder, the other end was connected by a thread to a force transducer and suspended in a muscle bath containing Tyrode's Solution maintained at 37° C. and gassed with 95% O2 and 5% CO2. An initial tension of 500 mg was applied and the tissue allowed to equilibrate for 60 minutes prior to the start of the study. During this period the tissue was washed every 16 minutes. Each preparation, at 16 minute intervals, was challenged with KCl sufficient to yield a bath K+ concentration of 80 mMK for 2 minutes, then washed with fresh solution. The 16 minute interval between K+ challenges was maintained throughout the study. Upon stabilization of the responses to the K+ challenge the test compound (potential calcium entry antagonist) was introduced into the bath 2 minutes prior to and during the 2 minute exposure to K+ after which the bath was cleared and washed with fresh solution. Logarithmically increasing doses (up to 10^-4 M) of the potential antagonist were administered as the study progressed. The measure of a compound's ability to inhibit the tonic contraction of muscle is a measure of its activity as a calcium channel blocking agent.

[2] = tested on: lipid peroxidation in liposomes prepared from native rat cardiac lipid; assay: Anti-peroxidative activity (superoxide-dependent, iron-promoted lipid peroxidation, MDA-like products); type: biochemical; details: for Anti-Peroxidative Activity % Inhibition (1 μM) / IC50: 60 minutes at 37° C.
Procedure: An in vitro assay system to measure antiperoxidative activity is done in two steps: (A) lipid peroxidation is triggered by a free-radical generating system that replicates the superoxide-dependent, iron-promoted Haber-Weiss reaction, and (B) peroxidation is measured spectrophotometrically as the production of malondialdehyde-like products (MDA). Liposomes prepared from the native rat cardiac lipid are incubated with hypoxanthine, xanthine oxidase, and Fe· ADP chelate, and a test substance or buffer in glass tubes for 60 minutes at 37° C. The amount of peroxidation is determined by adding a thiobarbituric acid-reaction mixture to the tubes, heating to 80° C. for 30 minutes and reading the pink adduct at 530 nm.

Row | SMILES | IC50 ([1]; Cavia porcellus) [µM] | activity in the guinea pig ileum test [1] | activity in the anti-peroxidative test [2] | IC50 [2] [µM] | also measured
1 | COc1ccc([C@@H]2Sc3c(ccc4ccccc34)N(CCN(C)C)C(=O)[C@@H]2OC(=O)c2cc(OC)c(OC)c(OC)c2)cc1 (racemic) [Compound J, (±)-cis-2,3-dihydro-2-(4-methoxyphenyl)-3-[(3,4,5-trimethoxybenzoyl)oxy]-5-[2-(dimethylamino)ethyl]naphtho [1,2-b][1,4]thiazepin-4(5H)-one hydrochloride] | 70 |  |  |  | 
2 | CNCCN1C(=O)[C@H](OC(C)=O)[C@H](c2ccc(OC)cc2)Sc2c1ccc1ccccc21 (relative stereo) [Compound D] |  |  |  |  | IC50 [1]: 3.5 µM
3 | COc1ccc([C@@H]2Sc3c(ccc4ccccc34)N(CCN(C)C)C(=O)[C@@H]2OC(=O)c2cc(C(C)(C)C)c(O)c(C(C)(C)C)c2)cc1 (racemic) [Example 14, (±)-cis-2,3-Dihydro-3-[[4-hydroxy-3,5-bis(1,1-dimethylethyl)benzoyl]oxy]-2-(4-methoxyphenyl)-5-[2-(dimethylamino)ethyl]naphtho[1,2-b][1,4]thiazepin-4(5H)-one] |  | not found to be active | active |  | 
4 | CNCCN1C(=O)[C@H](O)[C@H](c2ccc(OC)cc2)Sc2c1ccc1ccccc21 (relative stereo) [Compound C] |  |  |  |  | IC50 [1]: 7 µM
5 | COc1ccc([C@@H]2Sc3c(ccc4ccccc34)N(CCN(C)C)C(=O)[C@@H]2OC(=O)C2(C)CCc3c(cc(C(C)C)c(O)c3C(C)C)O2)cc1 (relative stereo) [Example 15 isomer "B", [(±)-cis-3(2alpha or 2beta)]-2,3-dihydro-3-[[[3,4-dihydro-6-hydroxy-2-methyl-5,7-bis(1-methylethyl)-2H-1-benzopyran-2-yl]carbonyl]oxy]-5-[2-(dimethylamino)ethyl]-2-(4-methoxyphenyl)naphtho[1,2-b][1,4]thiazepin-4(5H)-one] |  |  |  | < 1 | Anti-Peroxidative Activity % Inhibition (1 μM) ([2]; listed as drawing 27, 1 µM): 66.7%
6 | COc1ccc([C@@H]2Sc3c(ccc4ccccc34)N(CCN(C)C)C(=O)[C@@H]2OC(=O)c2cccnc2)cc1 (relative stereo) [Compound M, (±)-cis-2,3-dihydro-2-(4-methoxyphenyl)-5-[2-(dimethylamino)ethyl]-3-[(3-pyridinylcarbonyl)oxy]naphtho[1,2-b][1,4]thiazepin-4(5H)-one dihydrochloride (4:5) hydrate] | 16 |  |  |  | 
7 | COc1ccc([C@@H]2Sc3c(ccc4ccccc34)N(CCN(C)C)C(=O)[C@@H]2OC(=O)c2ccc(OC)c(OC)c2)cc1 (relative stereo) [Example 4, (±)-cis-3-[(3,4-Dimethoxybenzoyl)oxy]-2,3-dihydro-5-[2-(dimethylamino)ethyl]-2-(4-methoxyphenyl)naphtho][1,2-b][1,4]thiazepin-4(5H)-one] |  | not found to be active | active |  | 
8 | COc1ccc([C@@H]2Sc3c(ccc4ccccc34)N(CCN(C)C)C(=O)[C@@H]2OC(=O)c2ccccc2O)cc1 (racemic) [Compound F, (±)-cis-2,3-dihydro-3-[(2-hydroxybenzoyl)oxy]-5-[2-(dimethylamino)ethyl]-2-(4-methoxyphenyl)naphtho[1,2-b][1,4]thiazepin-4(5H)-one hydrochloride] | 45 |  |  |  | 
9 | COc1ccc([C@@H]2Sc3c(ccc4ccccc34)N(CCN(C)C)C(=O)[C@@H]2OC(=O)C2(C)CCc3c(cc(C(C)C)c(O)c3C(C)C)O2)cc1 (single isomer, unassigned; (+)) [Example 17 isomer "B", [(+)-cis-3(2alpha, or 2beta)]-2,3-dihydro-3-[[[3,4-dihydro-6-hydroxy-2-methyl-5,7-bis(1-methylethyl)-2H-1-benzopyran-2-yl]carbonyl]oxy]-5-[2-(dimethylamino)ethyl]-2-(4-methoxyphenyl)naphtho[1,2-b][1,4]thiazepin-4(5H)-one] |  | not found to be active |  | < 1 | Anti-Peroxidative Activity % Inhibition (1 μM) [2]: 59.6%
10 | COc1ccc([C@@H]2Sc3c(ccc4ccccc34)N(CCN(C)C)C(=O)[C@@H]2OC(=O)C2(C)CCc3c(C)c(O)c(C)c(C)c3O2)cc1 (relative stereo) [Example 18, [(+)-cis-3(2alpha and 2beta)1-2,3-Dihydro-3-[[(3,4-dihydro-6-hydroxy-2,5,7,8-tetramethyl-2H-1-benzopyran-2-yl)carbonyl]oxy]-2-(4-methoxyphenyl)-5-[2-(dimethylamino)ethyl]naphtho[1,2-b][1,4]thiazepin-4(5H)-one] |  | not found to be active | active |  | 
11 | COc1ccc([C@@H]2Sc3c(ccc4ccccc34)N(CCN(C)C)C(=O)[C@@H]2OC(=O)c2ccccc2OC(C)=O)cc1 (relative stereo) [Compound E, (±)-cis-3-[[(2-acetyloxy)benzoyl]oxy]-2,3-dihydro-5-[2-(dimethylamino)ethyl]-2-(4-methoxyphenyl)naphtho[1,2-b][1,4]thiazepin-4(5H)-one hydrochloride] | 13 |  |  |  | 
12 | COc1ccc([C@@H]2Sc3c(ccc4ccccc34)N(CCN(C)C)C(=O)[C@@H]2OC(=O)C2(C)CCc3c(cc(C(C)C)c(O)c3C(C)C)O2)cc1 (relative stereo) [Example 15 isomer "A", [(±)-cis-3(2alpha or 2beta)]-2,3-dihydro-3-[[[3,4-dihydro-6-hydroxy-2-methyl-5,7-bis(1-methylethyl)-2H-1-benzopyran-2-yl]carbonyl]oxy]-5-[2-(dimethylamino)ethyl]-2-(4-methoxyphenyl)naphtho[1,2-b][1,4]thiazepin-4(5H)-one] |  |  | found to be active | < 1 | Anti-Peroxidative Activity % Inhibition (1 μM) ([2]; listed as drawing 26, 1 µM): 62.6%
13 | COc1ccc([C@@H]2Sc3c(ccc4ccccc34)N(CCN(C)C)C(=O)[C@@H]2OC(=O)C2(C)CCc3c(cc(C(C)C)c(O)c3C(C)C)O2)cc1 (single isomer, unassigned; (+)) [Example 17 isomer "A", [(+)-Cis-3(2α or 2β)]-2,3-dihydro-3-[[[3,4-dihydro-6-hydroxy-2-methyl-5,7-bis(1-methylethyl)-2H-1-benzopyran-2-yl]carbonyl]oxy]-5-[2-(dimethylamino)ethyl]-2-(4-methoxyphenyl)naphtho[1,2-b][1,4]thiazepin-4(5H)-one (E)-2-butenedioate monohydrate] |  | not found to be active | found to be active | < 1 | Anti-Peroxidative Activity % Inhibition (1 μM) ([2]; monohydrate): 58.5%
